Results taken from paper PMC10537368, “Design, Synthesis, and Biological Evaluation of Novel 3-Cyanopyridone/Pyrazoline Hybrids as Potential Apoptotic Antiproliferative Agents Targeting EGFR/BRAF^V600E Inhibitory Pathways” (Molecules, 2023).
Several values for one entry are separate records, joined by “and”; a condition that tells them apart may be missing. Identical values can stand only once. Like-named read-outs stand apart in the source and are kept apart here.

How the values were obtained:
[1] = Cell viability MTT assay on MCF-10A normal cells; assay type: cell-based; conditions: human, MCF-10A mammary gland epithelial normal cells, MCF-10A cells, four days of incubation
Method: The viability of new compounds 21–30 was examined using the human mammary gland epithelial (MCF-10A) cell line. The cell viability of compounds 21–30 was assessed using the MTT assay after four days of incubation on MCF-10A cells.
The human mammary gland epithelial (MCF-10A) normal cell line was utilized to investigate the viability of new derivatives 21–30 [56]. For more information, see Supplementary Materials Files.

[2] = tested on: lung cancer (A-549) cell line; experiment: Antiproliferative MTT assay, A-549; assay type: cell-based; conditions: Homo sapiens, A549; A-549, MTT; read-out: Antiproliferative Activity IC50 ± SEM, A-549
Excerpt: (§1) The median inhibitory concentration (IC50) and GI50 [58]

[3] = tested on: breast cancer (MCF-7) cell line; experiment: Antiproliferative MTT assay, MCF-7; assay type: cell-based; conditions: Homo sapiens, MCF7; MCF-7, MTT; read-out: Antiproliferative Activity IC50 ± SEM, MCF-7
Excerpt: as §1

[4] = tested on: pancreatic cancer (Panc-1) cell line; experiment: Antiproliferative MTT assay, Panc-1; assay type: cell-based; conditions: Homo sapiens; Panc-1, MTT; read-out: Antiproliferative Activity IC50 ± SEM, Panc-1
Excerpt: as §1

[5] = tested on: colon cancer (HT-29) cell line; experiment: Antiproliferative MTT assay, HT-29; assay type: cell-based; conditions: Homo sapiens; HT-29, MTT; read-out: Antiproliferative Activity IC50 ± SEM, HT-29
Excerpt: as §1

[6] = tested on: four human cancer cell lines (A-549, MCF-7, Panc-1, HT-29); experiment: Antiproliferative MTT assay, average over four cancer cell lines (GI50); assay type: cell-based; conditions: for IC50: Homo sapiens, average IC50 against the four cancer cell lines
BRAF^V600E [7] = target: T1, BRAF^V600E (Homo sapiens, UniProt P15056, V600E); experiment: BRAF^V600E inhibitory assay; assay type: biochemical; conditions: read-out: BRAF^V600E Inhibition IC50 ± SEM
T1 sequence (P15056 whole entry V600E): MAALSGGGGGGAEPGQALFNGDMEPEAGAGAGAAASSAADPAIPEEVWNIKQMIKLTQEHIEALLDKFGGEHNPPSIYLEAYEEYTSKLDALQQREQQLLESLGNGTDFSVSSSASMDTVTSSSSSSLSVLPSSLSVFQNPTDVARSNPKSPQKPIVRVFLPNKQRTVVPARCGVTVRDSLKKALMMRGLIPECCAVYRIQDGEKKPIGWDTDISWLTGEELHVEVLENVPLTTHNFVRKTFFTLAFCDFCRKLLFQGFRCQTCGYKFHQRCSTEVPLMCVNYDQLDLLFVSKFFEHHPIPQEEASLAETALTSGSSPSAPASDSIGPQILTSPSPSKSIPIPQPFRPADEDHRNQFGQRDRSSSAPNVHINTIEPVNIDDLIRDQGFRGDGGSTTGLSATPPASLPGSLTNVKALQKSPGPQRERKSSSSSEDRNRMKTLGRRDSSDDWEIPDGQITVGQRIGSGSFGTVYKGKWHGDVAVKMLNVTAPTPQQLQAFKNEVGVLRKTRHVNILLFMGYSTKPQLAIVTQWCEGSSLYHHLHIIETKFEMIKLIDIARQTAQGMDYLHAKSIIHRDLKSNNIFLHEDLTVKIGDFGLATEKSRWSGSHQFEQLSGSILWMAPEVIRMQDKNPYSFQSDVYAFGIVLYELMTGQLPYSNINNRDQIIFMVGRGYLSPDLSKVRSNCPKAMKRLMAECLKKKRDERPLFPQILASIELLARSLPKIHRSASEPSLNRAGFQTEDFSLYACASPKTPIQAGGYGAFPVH

EGFR [8] = target: T2, EGFR (Homo sapiens, UniProt P00533); experiment: EGFR inhibitory assay; conditions: for fold more potent than the reference Erlotinib (EGFR IC50): IC50 ratio vs Erlotinib
T2 sequence (P00533 25-1210): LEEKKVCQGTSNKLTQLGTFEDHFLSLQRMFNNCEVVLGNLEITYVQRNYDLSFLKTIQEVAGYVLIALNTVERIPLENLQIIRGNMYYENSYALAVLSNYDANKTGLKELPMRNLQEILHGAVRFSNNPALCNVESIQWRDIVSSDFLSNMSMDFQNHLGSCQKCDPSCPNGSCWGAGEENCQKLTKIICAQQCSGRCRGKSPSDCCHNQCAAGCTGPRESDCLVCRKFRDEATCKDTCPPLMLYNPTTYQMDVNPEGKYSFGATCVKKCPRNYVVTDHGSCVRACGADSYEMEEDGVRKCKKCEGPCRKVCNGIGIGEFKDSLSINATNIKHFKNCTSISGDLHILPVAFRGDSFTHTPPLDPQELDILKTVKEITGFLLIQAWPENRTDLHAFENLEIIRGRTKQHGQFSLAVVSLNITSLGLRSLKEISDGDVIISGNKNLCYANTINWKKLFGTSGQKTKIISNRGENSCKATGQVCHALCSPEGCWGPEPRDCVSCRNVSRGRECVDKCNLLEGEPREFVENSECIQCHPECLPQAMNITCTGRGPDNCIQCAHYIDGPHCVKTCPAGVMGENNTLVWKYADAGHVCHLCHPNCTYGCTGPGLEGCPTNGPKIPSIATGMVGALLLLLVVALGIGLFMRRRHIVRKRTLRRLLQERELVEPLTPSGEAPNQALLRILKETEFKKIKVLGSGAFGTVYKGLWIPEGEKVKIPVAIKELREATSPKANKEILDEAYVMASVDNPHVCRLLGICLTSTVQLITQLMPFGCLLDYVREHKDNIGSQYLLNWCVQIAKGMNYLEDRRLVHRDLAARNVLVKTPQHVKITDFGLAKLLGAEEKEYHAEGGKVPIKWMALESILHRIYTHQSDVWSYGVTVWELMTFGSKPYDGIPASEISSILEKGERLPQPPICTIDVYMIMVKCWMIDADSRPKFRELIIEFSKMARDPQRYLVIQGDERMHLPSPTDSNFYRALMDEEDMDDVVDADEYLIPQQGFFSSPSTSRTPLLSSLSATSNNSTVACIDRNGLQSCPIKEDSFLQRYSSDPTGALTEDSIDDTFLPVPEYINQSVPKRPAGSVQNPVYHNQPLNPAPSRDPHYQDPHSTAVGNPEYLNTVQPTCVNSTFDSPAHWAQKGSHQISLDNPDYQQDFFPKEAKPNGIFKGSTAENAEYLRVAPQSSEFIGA

[9] = tested on: Caspase-3 in human epithelial cancer cell line (A-594); experiment: Caspase 3 activation assay; assay type: cell-based; conditions: for Caspase-3 Conc: A-594 cell line; for Caspase-3 Fold Change: A-594, vs untreated control cells
Excerpt: Caspases are essential for the induction and maintenance of apoptosis. Caspase-3 is an important caspase that cleaves several cell proteins, causing apoptosis.
See Supplementary Materials Files.

[10] = tested on: Caspase-8 in A-594 cancer cell line; experiment: Caspase-8 level assay; assay type: cell-based, human; conditions: for Caspase-8 Fold Change: A-594, vs untreated control; for Caspase-8 Conc: A-594 cell line
[11] = tested on: Bax in A-594 cancer cell line; experiment: Bax level assay; assay type: cell-based, human; conditions: for Bax Fold Change: A-594, vs untreated control; for Bax Conc: A-594 cell line
[12] = tested on: Bcl-2 in A-594 cancer cell line; experiment: Bcl-2 level assay; assay type: cell-based, human; conditions: for Bcl-2 Fold Reduction: A-594, vs untreated control; for Bcl-2 Conc: A-594 cell line
Excerpt: […]. […]. Compared to the untreated control cell, compounds 28 and 30 elevated caspase-8 levels by 25- and 28-fold, respectively.
[…]. Compounds 21, 28, and 30 were investigated as caspase-3, caspase-8, Bax activators, and Bcl-2 down-regulators against the human epithelial cancer cell line (A-594). See Supplementary Materials Files.

Panc-1 cancer = tested on: Panc-1 cancer; parameters: method as in PMID 36526595; conditions: read-out: IC50 against Panc-1 cancer; cited from earlier work
A-549 cancer = tested on: A-549 cancer; parameters: method as in PMID 37240450; conditions: read-out: IC50 against A-549 cancer; cited from earlier work
EGFR [13] = target: T2, EGFR; conditions: read-out: EGFR inhibition IC50; cited from earlier work
BRAF^V600E [14] = target: T1, BRAF^V600E; conditions: cited from earlier work

Structure (SMILES) | viability at 4 days, 50 µM [1] | IC50 [2] | IC50 [3] | IC50 [4] | IC50 [5] | IC50 [6] | IC50 (BRAF^V600E [7]) | IC50 (EGFR [8]) | other results
COc1ccc(C2CC(c3ccc(NC(=O)Cn4c(-c5ccc(Cl)cc5)cc(-c5ccc(Cl)cc5)c(C#N)c4=O)cc3)=NN2)cc1OC (centres unmarked) [Compound 29, 2-(3-Cyano-4,6-bis(4-chlorophenyl)-2-oxopyridin-1(2H)-yl)-N-(4-(5-(3,4-dimethoxyphenyl)-4,5-dihydro-1H-pyrazol-3-yl)phenyl)acetamide] | 91% | 0.027 ± 0.002 µM | 0.031 ± 0.003 µM | 0.03 ± 0.003 µM | 0.03 ± 0.003 µM | 0.03 µM | 0.08 ± 0.007 µM | 0.075 ± 0.005 µM | –
N#Cc1c(-c2ccc(Cl)cc2)cc(-c2ccc(Cl)cc2)n(CC(=O)Nc2ccc(C3=NNC(c4ccccc4)C3)cc2)c1=O (centres unmarked) [Compound 21, 2-(3-Cyano-4,6-bis(4-chlorophenyl)-2-oxopyridin-1(2H)-yl)-N-(4-(5-phenyl-4,5-dihydro-1H-pyrazol-3-yl)phenyl)acetamide] | 90% | 0.026 ± 0.002 µM | 0.03 ± 0.003 µM | 0.028 ± 0.002 µM | 0.028 ± 0.002 µM | 0.028 µM | 0.073 ± 0.006 µM | 0.072 ± 0.005 µM | Caspase-3 Conc [9]: 530 ± 5 pg/mL
N#Cc1c(-c2ccc(Cl)cc2)cc(-c2ccc(Cl)cc2)n(CC(=O)Nc2ccc(C3=NNC(c4ccc(Cl)cc4Cl)C3)cc2)c1=O (centres unmarked) [Compound 27, 2-(3-Cyano-4,6-bis(4-chlorophenyl)-2-oxopyridin-1(2H)-yl)-N-(4-(5-(2,4-dichlorophenyl)-4,5-dihydro-1H-pyrazol-3-yl)phenyl)acetamide] | 88% | 0.036 ± 0.003 µM | 0.042 ± 0.004 µM | 0.038 ± 0.003 µM | 0.038 ± 0.003 µM | 0.038 µM | – | – | –
COc1ccc(C2CC(c3ccc(NC(=O)Cn4c(-c5ccc(OC)c(OC)c5)cc(-c5ccc(OC)c(OC)c5)c(C#N)c4=O)cc3)=NN2)cc1 (centres unmarked) [Compound 28, 2-(3-Cyano-4,6-bis(3,4-dimethoxyphenyl)-2-oxopyridin-1(2H)-yl)-N-(4-(5-(4-methoxyphenyl)-4,5-dihydro-1H-pyrazol-3-yl)phenyl)acetamide] | 89% | 0.025 ± 0.002 µM | 0.03 ± 0.003 µM | 0.026 ± 0.002 µM | 0.026 ± 0.002 µM | 0.027 µM | 0.065 µM and 0.069 µM | 0.07 ± 0.005 µM | Caspase-3 Fold Change [9]: ~9 fold; Caspase-3 Conc [9]: 590 ± 5 pg/mL and 595 ± 5 pg/mL; Caspase-8 Fold Change [10]: 25 fold; Caspase-8 Conc [10]: 2.25 ng/mL; Bax Fold Change [11]: 36 fold; Bax Conc [11]: 325 pg/mL; Bcl-2 Fold Reduction [12]: 6 fold; Bcl-2 Conc [12]: 0.80 ng/mL; fold more potent than the reference Erlotinib (EGFR IC50) (EGFR [8]): 1.2 fold
Cc1ccc(C2CC(c3ccc(NC(=O)Cn4c(-c5ccc(Cl)cc5)cc(-c5ccc(Cl)cc5)c(C#N)c4=O)cc3)=NN2)c(C)c1 (centres unmarked) [Compound 26, 2-(3-Cyano-4,6-bis(4-chlorophenyl)-2-oxopyridin-1(2H)-yl)-N-(4-(5-(2,4-dimethylphenyl)-4,5-dihydro-1H-pyrazol-3-yl)phenyl)acetamide] | 92% | 0.035 ± 0.003 µM | 0.04 ± 0.004 µM | 0.036 ± 0.003 µM | 0.036 ± 0.003 µM | 0.037 µM | – | – | –
COc1ccc(-c2cc(-c3ccc(OC)c(OC)c3)n(CC(=O)Nc3ccc(C4=NNC(c5ccc(OC)c(OC)c5)C4)cc3)c(=O)c2C#N)cc1OC (centres unmarked) [Compound 30, 2-(3-Cyano-4,6-bis(3,4-dimethoxyphenyl)-2-oxopyridin-1(2H)-yl)-N-(4-(5-(3,4-dimethoxyphenyl)-4,5-dihydro-1H-pyrazol-3-yl)phenyl)acetamide] | 90% | 0.023 ± 0.002 µM | 0.028 ± 0.002 µM | 0.024 ± 0.002 µM | 0.024 ± 0.002 µM | 0.025 µM | 0.069 µM and 0.065 µM | 0.068 ± 0.004 µM | fold more potent than the reference Erlotinib (GI50) ([6]; GI50 ratio vs Erlotinib): 1.3 fold; Caspase-3 Fold Change [9]: ~11 fold; Caspase-3 Conc [9]: 710 ± 6 pg/mL; Caspase-8 Fold Change [10]: 28 fold; Caspase-8 Conc [10]: 2.50 ng/mL; Bax Fold Change [11]: 38 fold; Bax Conc [11]: 345 pg/mL; Bcl-2 Fold Reduction [12]: 8 fold; Bcl-2 Conc [12]: 0.65 ng/mL; fold more potent than the reference Erlotinib (EGFR IC50) (EGFR [8]): 1.2 fold
COc1ccc(-c2cc(-c3ccc(OC)c(OC)c3)n(CC(=O)Nc3ccc(C4=NNC(c5ccccc5)C4)cc3)c(=O)c2C#N)cc1OC (centres unmarked) [Compound 22, 2-(3-Cyano-4,6-bis(3,4-dimethoxyphenyl)-2-oxopyridin-1(2H)-yl)-N-(4-(5-phenyl-4,5-dihydro-1H-pyrazol-3-yl)phenyl)acetamide] | 89% | 0.032 ± 0.003 µM | 0.035 ± 0.003 µM | 0.034 ± 0.003 µM | 0.032 ± 0.003 µM | 0.033 µM | – | – | fold less potent than compound 30 (GI50) ([6]; GI50 ratio vs compound 30): 1.3 fold
COc1ccc(-c2cc(-c3ccc(OC)c(OC)c3)c(C#N)c(=O)n2CC(=O)Nc2ccc(C3=NNC(c4ccc(OC)c(OC)c4)C3)cc2)cc1 (centres unmarked) [Compound 24, 2-(3-Cyano-4-(3,4-dimethoxyphenyl)-6-(4-methoxyphenyl)-2-oxopyridin-1(2H)-yl)-N-(4-(5-(3,4-dimethoxyphenyl)-4,5-dihydro-1H-pyrazol-3-yl)phenyl)acetamide] | 90% | 0.027 ± 0.002 µM | 0.031 ± 0.003 µM | 0.029 ± 0.002 µM | 0.028 ± 0.002 µM | 0.029 µM | 0.077 ± 0.006 µM | 0.073 ± 0.005 µM | –
N#Cc1c(-c2ccc(Cl)cc2)cc(-c2ccc(Cl)cc2)n(CC(=O)Nc2ccc(C3=NNC(c4ccc(Cl)cc4)C3)cc2)c1=O (centres unmarked) [Compound 23, 2-(3-Cyano-4,6-bis(4-chlorophenyl)-2-oxopyridin-1(2H)-yl)-N-(4-(5-(4-chlorophenyl)-4,5-dihydro-1H-pyrazol-3-yl)phenyl)acetamide] | 91% | 0.029 ± 0.002 µM | 0.034 ± 0.003 µM | 0.032 ± 0.003 µM | 0.032 ± 0.003 µM | 0.032 µM | – | – | –
CN[C@@H]1C[C@H]2O[C@@](C)([C@@H]1OC)n1c3ccccc3c3c4c(c5c6ccccc6n2c5c31)C(=O)NC4 [Staurosporine, reference compound] | – | – | – | – | – | – | – | – | Caspase-3 Fold Change [9]: 7 fold; Caspase-8 Fold Change [10]: 21 fold; Bax Fold Change [11]: 32 fold; Bcl-2 Fold Reduction [12]: 5 fold; Bcl-2 Conc [12]: 1.00 ng/mL
COc1cccc2c1C(=O)c1c(O)c3c(c(O)c1C2=O)C[C@@](O)(C(=O)CO)C[C@@H]3O[C@H]1C[C@H](N)[C@H](O)[C@H](C)O1 [doxorubicin] | – | – | – | – | – | – | – | – | IC50 (Panc-1 cancer): 1 µM; IC50 (A-549 cancer): 1.4 µM
COc1ccc(C2CC(c3ccc(NC(=O)Cn4c(-c5ccc(Cl)cc5)cc(-c5ccc(Cl)cc5)c(C#N)c4=O)cc3)=NN2)cc1 (centres unmarked) [Compound 25, 2-(3-Cyano-4,6-bis(4-chlorophenyl)-2-oxopyridin-1(2H)-yl)-N-(4-(5-(4-methoxyphenyl)-4,5-dihydro-1H-pyrazol-3-yl)phenyl)acetamide] | 88% | 0.04 ± 0.003 µM | 0.045 ± 0.004 µM | 0.042 ± 0.004 µM | 0.042 ± 0.004 µM | 0.042 µM | – | – | –
COc1ccc(/C=C/C(=O)c2ccc(NC(=O)Cn3c(-c4ccc(OC)c(OC)c4)cc(-c4ccc(OC)c(OC)c4)c(C#N)c3=O)cc2)cc1OC [Compound I] | – | – | – | – | – | – | – | – | IC50 (Panc-1 cancer): 0.8 µM; IC50 (EGFR [13]): 0.089 µM; IC50 (BRAF^V600E [14]; read-out: BRAF^V600E inhibition IC50): 0.065 µM
COc1ccc(C2CC(c3ccc(OCC(=O)Nc4ccc(C5=NNC(c6ccc(OC)c(OC)c6)C5)cc4)cc3)=NN2)cc1 (centres unmarked) [Compound II] | – | – | – | – | – | – | – | – | IC50 (BRAF^V600E [14]; read-out: BRAF^V600E IC50): 0.093 µM; IC50 (A-549 cancer): 1 µM
C#Cc1cccc(Nc2ncnc3cc(OCCOC)c(OCCOC)cc23)c1 [Erlotinib, reference compound] | – | 0.03 ± 0.003 µM | 0.04 ± 0.003 µM | 0.03 ± 0.003 µM | 0.03 ± 0.003 µM | – | – | – | –
